Results: patent publication US9630941B2 (priority 2008, dated 2017)

Key:
[1] = Thermal stability, 120° C. for 10 min; format: physicochemical; settings: for CBN content of the sample after heating / Drug remaining / THC content of the sample after heating / Drug remaining (%): 120° C. for 10 min; for Drug remaining (%): % of initial; for CBN content of the sample, initial / Initial, μg (drug itself) / THC content of the sample, initial: before heating
Description: C. Thermal Stability—120° C. for 10 min.

[2] = Chemical stability pH dependent at 25° C.; format: physicochemical
Description: B. Chemical Stability pH Dependent at 25° C.

[3] = Bioreversion: plasma stability, porcine plasma; format: in vitro ADME
[4] = Porcine buccal tissue homogenate stability; format: in vitro ADME; settings: protein concentration 2 mg/ml
Description: (§1) b. Porcine Buccal Tissue Homogenate Stability
(§2) Protein Concentration 2 mg/ml

[5] = Control (IPBS) stability for the buccal homogenate study; format: physicochemical
Description: as §1, §2

[6] = Aqueous solubility, pH dependent; format: physicochemical

Row | Compound | Drug loading (%) [1] [%] | CBN content of the sample after heating [1] [µg] | Drug remaining [1] [µg] | THC content of the sample after heating [1] [µg] | Drug remaining (%) [1] | CBN content of the sample, initial [1] [µg] | Initial, μg (drug itself) [1] [µg] | THC content of the sample, initial [1] [µg] | First order rate constant ([2]; Buffer pH 5.0, 25° C.) | First order rate constant ([2]; Buffer pH 7.0, 25° C.) | First order rate constant ([2]; Buffer pH 9.0, 25° C.) | First order rate constant ([2]; Water, 25° C.) | K [3] | T1/2 [3] | K [4] | K [5] | Aqueous Solubility ([6]; pH 1.2) [µg/mL] | Aqueous Solubility ([6]; pH 2) [µg/mL] | Aqueous Solubility ([6]; pH 3) [µg/mL] | Aqueous Solubility ([6]; pH 4) [µg/mL] | also measured
1 | CCCCCc1cc(OC(=O)CCCc2ccc(NC(=O)CCC(=O)O)cc2)c2c(c1)OC(C)(C)[C@@H]1CCC(C)=C[C@@H]21 [THC-APB-HS (14), THC-4(4-aminophenyl)butyrate-hemisuccinate] | 96.66 ± 2.18 | 38.36 ± 9.70 | 1518.84 ± 34.38 | 0 | (104.81 ± 4.74) % | 47.63 ± 9.92 | 1449.90 ± 32.76 | 0 | 0.00368 h⁻¹ | Stable | Stable | 0.00481 h⁻¹ | Stable | Stable |  |  |  |  |  |  | 
2 | CCCCCc1cc(OC(=O)[C@@H](N)CCC(N)=O)c2c(c1)OC(C)(C)[C@@H]1CCC(C)=C[C@@H]21 [THC-Glutaminate (9), Δ^9-THC-glutaminate] | 63.41 ± 2.57 |  | 721.31 ± 73.76 |  | (75.75 ± 4.69) % |  | 951.08 ± 38.55 |  | 70.23 ± 0.92 ×10^−3 h^−1 | 153.42 ± 4.26 ×10^−3 h^−1 | 756.35 ± 106.61 ×10^−3 h^−1 | 32.72 ± 15.19 ×10^−3 h^−1 | 53.41 ± 5.84 ×10^−2 min^−1 | 1.31 ± 0.14 min | 40.41 ± 3.30 ×10^−3 min^−1 | 26.30 ± 0.14 ×10^−3 min^−1 | 59.55 ± 0.02 | 162.82 ± 14.39 | 46.29 ± 1.13 | 22.24 ± 2.20 | T1/2 [4]: 17.21 ± 1.40 min; Aqueous Solubility ([6]; H20): 1.61 ± 0.76 µg/mL; Aqueous Solubility ([6]; Water): 3.63 ± 1.72 µM; Aqueous Solubility ([6]; pH 1.2, listed as THC-Glutamine): 134.25 ± 0.05 µM; Aqueous Solubility ([6]; pH 2, listed as THC-Glutamine): 367.06 ± 32.44 µM; Aqueous Solubility ([6]; pH 3, listed as THC-Glutamine): 104.36 ± 2.55 µM; Aqueous Solubility ([6]; pH 4, listed as THC-Glutamine): 50.13 ± 4.97 µM; Aqueous Solubility ([6]; pH 5): 5.76 ± 0.02 µg/mL; Aqueous Solubility ([6]; pH 5, listed as THC-Glutamine): 12.99 ± 0.04 µM; Aqueous Solubility ([6]; pH 6): 2.15 ± 0.32 µg/mL; Aqueous Solubility ([6]; pH 6, listed as THC-Glutamine): 4.84 ± 0.72 µM; Aqueous Solubility ([6]; pH 7): 0.52 ± 0.06 µg/mL; Aqueous Solubility ([6]; pH 7, listed as THC-Glutamine): 1.18 ± 0.14 µM; Aqueous Solubility ([6]; pH 8): 0.34 ± 0.33 µg/mL; Aqueous Solubility ([6]; pH 8, listed as THC-Glutamine): 0.76 ± 0.74 µM; Aqueous Solubility ([6]; pH 9): 0.16 ± 0.02 µg/mL; Aqueous Solubility ([6]; pH 9, listed as THC-Glutamine): 0.35 ± 0.04 µM
3 | CCCCCc1cc(OC(=O)CNC)c2c(c1)OC(C)(C)[C@@H]1CCC(C)=C[C@@H]21 [THC-Sarcosinate (7), Δ^9-THC-sarcosinate] | 79.82 ± 0.85 | 33.83 ± 0.97 | 841.38 ± 40.18 | 54.53 ± 3.35 | (70.30 ± 4.10) % | 40.05 ± 3.45 | 1197.24 ± 12.69 | 26.68 ± 3.80 | 38.35 ± 4.32 ×10^−3 h^−1 | 605.61 ± 125.14 ×10^−3 h^−1 | 1209.25 ± 203.05 ×10^−3 h^−1 | 25.45 ± 21.99 ×10^−3 h^−1 | 63.16 ± 10.44 ×10^−2 min^−1 | 1.11 ± 0.18 min | 37.36 ± 3.87 ×10^−3 min^−1 | 23.47 ± 1.60 ×10^−3 min^−1 | 101.38 ± 29.22 | 151.75 ± 9.33 | 96.52 ± 2.84 | 50.74 ± 1.98 | Aqueous Solubility ([6]; pH 1.2, listed as THC-Sarcosine): 263.16 ± 75.84 µM; Aqueous Solubility ([6]; pH 2, listed as THC-Sarcosine): 393.89 ± 24.21 µM; Aqueous Solubility ([6]; pH 3, listed as THC-Sarcosine): 250.54 ± 7.38 µM; Aqueous Solubility ([6]; pH 4, listed as THC-Sarcosine): 131.70 ± 5.13 µM; Aqueous Solubility ([6]; pH 5): 7.14 ± 0.72 µg/mL; Aqueous Solubility ([6]; pH 5, listed as THC-Sarcosine): 18.54 ± 1.87 µM; Aqueous Solubility ([6]; pH 6): 0.53 ± 0.07 µg/mL; Aqueous Solubility ([6]; pH 6, listed as THC-Sarcosine): 1.38 ± 0.18 µM
4 | CCCCCc1cc(OC(=O)[C@@H](N)Cc2c[nH]c3ccccc23)c2c(c1)OC(C)(C)[C@@H]1CCC(C)=C[C@@H]21 [THC-Tryptophanate (10), Δ^9-THC-tryptophinate] | 89.84 ± 4.53 | 16.63 ± 2.63 | 1216.70 ± 32.88 | 96.10 ± 16.64 | (90.47 ± 7.00) % | 25.59 ± 2.26 | 1347.57 ± 67.93 | 97.38 ± 6.39 | 0.00829 h⁻¹ | 0.03803 h⁻¹ |  |  | 48.55 ± 5.90 ×10^−2 min^−1 | 1.44 ± 0.17 min | 9.06 ± 1.26 ×10^−3 min^−1 | 0.77 ± 0.02 ×10^−3 min^−1 |  |  |  |  | T1/2 [4]: 77.27 ± 10.73 min
5 | CCCCCc1cc(OC(=O)C(N)Cc2c[nH]c3ccccc23)c2c(c1)OC(C)(C)C1CCC(C)=CC21.O=C(O)CC(=O)O (stereo not drawn) [THC-Tryptophanate Malonate] |  |  |  |  |  |  |  |  |  |  |  |  |  |  |  |  | 1.58 ± 0.19 | 4.65 ± 0.31 |  |  | Aqueous Solubility ([6]; H20): 13.27 ± 14.72 µg/mL; Aqueous Solubility ([6]; Water): 8.02 ± 8.90 µM; Aqueous Solubility ([6]; pH 1.2, listed as THC-Tryptophan Malonate): 0.95 ± 0.12 µM; Aqueous Solubility ([6]; pH 2, listed as THC-Tryptophan Malonate): 2.81 ± 0.19 µM
6 | CCCCCc1cc(OC(=O)[C@@H](N)Cc2ccc(O)cc2)c2c(c1)OC(C)(C)[C@@H]1CCC(C)=C[C@@H]21 [THC-Tyrosinate (11), Δ^9-THC-tyrosinate] | 81.51 ± 4.28 | 24.42 ± 0.21 | 1138.93 ± 60.67 | 123.75 ± 2.69 | (93.15 ± 0.06) % | 35.68 ± 1.16 | 1222.61 ± 64.25 | 92.95 ± 3.08 | 6.32 ± 3.14 ×10^−3 h^−1 | 25.02 ± 0.88 ×10^−3 h^−1 | 53.88 ± 11.36 ×10^−3 h^−1 | 9.40 ± 0.88 ×10^−3 h^−1 | 93.53 ± 8.79 ×10^−2 min^−1 | 0.74 ± 0.07 min | 21.52 ± 0.55 ×10^−3 min^−1 | 1.11 ± 0.04 ×10^−3 min^−1 | 41.92 ± 2.14 | 15.76 ± 0.66 | 5.28 ± 1.78 | 0.73 ± 0.03 | T1/2 [4]: 32.21 ± 0.81 min; Aqueous Solubility ([6]; pH 1.2, listed as THC-Tyrosine): 87.76 ± 4.48 µM; Aqueous Solubility ([6]; pH 2, listed as THC-Tyrosine): 33.00 ± 1.38 µM; Aqueous Solubility ([6]; pH 3, listed as THC-Tyrosine): 11.06 ± 3.73 µM; Aqueous Solubility ([6]; pH 4, listed as THC-Tyrosine): 1.52 ± 0.06 µM
7 | CCCCCc1cc(OC(=O)[C@@H](N)C(C)C)c2c(c1)OC(C)(C)C1CCC(C)=CC21.O=C(O)CC(=O)O (stereo partly drawn) [THC-Valinate malonate] |  |  |  |  |  |  |  |  |  |  |  |  |  |  |  |  | 53.63 ± 1.09 | 118.42 ± 5.07 | 50.03 ± 1.80 | 13.92 ± 1.56 | Aqueous Solubility ([6]; H20): 1.21 ± 0.61 µg/mL; Aqueous Solubility ([6]; Water): 2.33 ± 1.19 µM; Aqueous Solubility ([6]; pH 1.2, listed as THC-Valine malonate): 103.61 ± 2.11 µM; Aqueous Solubility ([6]; pH 2, listed as THC-Valine malonate): 228.78 ± 9.79 µM; Aqueous Solubility ([6]; pH 3, listed as THC-Valine malonate): 96.65 ± 3.49 µM; Aqueous Solubility ([6]; pH 4, listed as THC-Valine malonate): 26.88 ± 3.01 µM; Aqueous Solubility ([6]; pH 5): 1.22 ± 0.00 µg/mL; Aqueous Solubility ([6]; pH 5, listed as THC-Valine malonate): 2.36 ± 0.01 µM; Aqueous Solubility ([6]; pH 6): 0.13 ± 0.02 µg/mL; Aqueous Solubility ([6]; pH 6, listed as THC-Valine malonate): 0.25 ± 0.04 µM; Aqueous Solubility ([6]; pH 7): 0.05 ± 0.02 µg/mL; Aqueous Solubility ([6]; pH 7, listed as THC-Valine malonate): 0.11 ± 0.03 µM; Aqueous Solubility ([6]; pH 8): 0.06 ± 0.00 µg/mL; Aqueous Solubility ([6]; pH 8, listed as THC-Valine malonate): 0.12 ± 0.01 µM; Aqueous Solubility ([6]; pH 9): 0.14 ± 0.02 µg/mL; Aqueous Solubility ([6]; pH 9, listed as THC-Valine malonate): 0.27 ± 0.03 µM
